Experiment [1] addresses T1, PARP1 (Homo sapiens, UniProt P09874). The experiment can be described thus: Release of fluorescently labeled p18mer DNA (fluorescence polarization) upon NAD+ addition, KI determination for PARPi, with or without HPF1. On the set-up: Wild-type PARP1 and PARP2 were expressed and purified as previously described; made in house. It is filed as biochemical. On the technique in general: In fluorescence polarisation assays a small probe gives low polarisation when free and higher when bound to something large.
Description: (§1) Starting with a complex of PARP1 or PARP2 bound to a PARPi and fluorescently labeled DNA, we monitor the loss of fluorescence polarization upon addition of high concentrations of NAD^+ (2 mM) as the labeled DNA is released from the PARylated PARPs (Fig. 1a).
(§2) Intuitively one might expect the observed rate of release of labeled DNA to reflect the slow dissociation of PARPi from the complex (koff; see Fig. 1a). However, the kinetics are actually more complex as there is competition between the inhibitor re-binding (kon[I]) and the binding of, and reaction with, NAD^+ (k2[NAD^+]) (Fig. 1a).
(§3) Next, 10 µL of PARP1 or PARP2 (10 nM) premixed with fluorescein labeled p18mer DNA (5 nM), was added to the various dilutions of PARPi and then incubated for 30 min to ensure complete association. Dissociation of labeled DNA was initiated by addition of 10 µL of NAD^+ (2 mM). […] We emphasize that the same correction is applied to the data for all PARPi. […] We can use the KI (derived from the slope of the replot, Fig. 2) and the minimal koff to calculate a minimal kon (KI = koff/kon, Supplementary Table 2).

The target of experiment [2] is T2, PARP2 (Homo sapiens, UniProt Q9UGN5).
T2 construct: Wild-type PARP1 and PARP2 were expressed and purified as previously described; made in house
T2 sequence (Q9UGN5 whole entry): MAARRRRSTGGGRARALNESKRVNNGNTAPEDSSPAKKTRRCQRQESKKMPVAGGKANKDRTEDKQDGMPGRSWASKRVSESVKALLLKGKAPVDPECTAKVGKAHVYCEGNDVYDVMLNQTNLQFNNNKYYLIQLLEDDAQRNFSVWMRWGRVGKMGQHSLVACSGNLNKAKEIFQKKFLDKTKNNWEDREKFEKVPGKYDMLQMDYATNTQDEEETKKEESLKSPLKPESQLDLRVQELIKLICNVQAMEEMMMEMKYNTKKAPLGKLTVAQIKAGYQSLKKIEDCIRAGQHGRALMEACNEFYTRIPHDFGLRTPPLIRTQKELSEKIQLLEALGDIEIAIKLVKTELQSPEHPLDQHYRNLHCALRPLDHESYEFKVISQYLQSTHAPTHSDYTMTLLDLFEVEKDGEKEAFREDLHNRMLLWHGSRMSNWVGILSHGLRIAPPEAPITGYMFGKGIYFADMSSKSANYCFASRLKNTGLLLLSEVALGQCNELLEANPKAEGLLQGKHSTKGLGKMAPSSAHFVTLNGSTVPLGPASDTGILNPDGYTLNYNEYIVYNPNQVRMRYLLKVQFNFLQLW
The description is as above. It is filed as biochemical.
Description: as §1, §2, §3

Experiment [3] deals with T1, PARP1. Particulars: cited from earlier work.
The target of experiment [4] is T1, PARP1. The experiment can be described thus: Fluorescence polarization association/dissociation of fl-Ola, with p18mer or Nuc165, with or without HPF1. It is filed as binding. On the set-up: Wild-type PARP1 and PARP2 were expressed and purified as previously described; made in house; on rate (observed, single run): unit not given here.
Experiment [5] concerns the target T2, PARP2. The experiment is described as above. It is filed as binding. Also on record: On (individual replicates): unit not given here.
The mark [6] stands for this setting: PARP1, +HPF1, single experiment.
The mark [7] stands for this setting: PARP1, without HPF1, single experiment.
The mark [8] stands for this setting: PARP2, +HPF1, single experiment.
Setting [9] is: PARP2, without HPF1 (apo), single experiment.

Where “and” joins values, the source holds several entries; their conditions need not be identical. Equal entries are not always repeated. Entries after “also recorded” stand apart in the source; their conditions may differ. Where two headings read alike, the source gives them in different places. Marks after values point to notes of the source that are not given here. Where only a bound is given, the exact number is not on record here.

In general, Ki refers to the dissociation constant of the complex between target and ligand, obtained from inhibition or displacement. In general, Kd refers to the constant that tells how readily two partners part at equilibrium.
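Wherever Fold (t-test) is given: PARP1 bound to fluorescein-tagged DNA and preincubated with inhibitor, then high NAD+ added, drop in fluorescence polarization tracked as the DNA dissociates.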
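Wherever KI is given: PARP1 bound to fluorescein-tagged DNA and preincubated with inhibitor, then high NAD+ added, drop in fluorescence polarization tracked as the DNA dissociates.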
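Wherever Kd is given: fluorescence polarization read every minute over 1000 min, association and dissociation traces fitted to a single exponential.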
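Wherever Ki average is given: PARP1 bound to fluorescein-tagged DNA and preincubated with inhibitor, then high NAD+ added, drop in fluorescence polarization tracked as the DNA dissociates.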
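Wherever Off (individual replicates) is given: fluorescence polarization read every minute over 1000 min, association and dissociation traces fitted to a single exponential.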
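Wherever On (individual replicates) is given: fluorescence polarization read every minute over 1000 min, association and dissociation traces fitted to a single exponential.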
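Wherever On average is given: fluorescence polarization read every minute over 1000 min, association and dissociation traces fitted to a single exponential.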
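Wherever koff (est) average is given: PARP1 bound to fluorescein-tagged DNA and preincubated with inhibitor, then high NAD+ added, drop in fluorescence polarization tracked as the DNA dissociates.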
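Wherever slope is given: slope of the inhibitor-concentration replot from which KI is derived.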

T1 sequence (P09874 whole entry): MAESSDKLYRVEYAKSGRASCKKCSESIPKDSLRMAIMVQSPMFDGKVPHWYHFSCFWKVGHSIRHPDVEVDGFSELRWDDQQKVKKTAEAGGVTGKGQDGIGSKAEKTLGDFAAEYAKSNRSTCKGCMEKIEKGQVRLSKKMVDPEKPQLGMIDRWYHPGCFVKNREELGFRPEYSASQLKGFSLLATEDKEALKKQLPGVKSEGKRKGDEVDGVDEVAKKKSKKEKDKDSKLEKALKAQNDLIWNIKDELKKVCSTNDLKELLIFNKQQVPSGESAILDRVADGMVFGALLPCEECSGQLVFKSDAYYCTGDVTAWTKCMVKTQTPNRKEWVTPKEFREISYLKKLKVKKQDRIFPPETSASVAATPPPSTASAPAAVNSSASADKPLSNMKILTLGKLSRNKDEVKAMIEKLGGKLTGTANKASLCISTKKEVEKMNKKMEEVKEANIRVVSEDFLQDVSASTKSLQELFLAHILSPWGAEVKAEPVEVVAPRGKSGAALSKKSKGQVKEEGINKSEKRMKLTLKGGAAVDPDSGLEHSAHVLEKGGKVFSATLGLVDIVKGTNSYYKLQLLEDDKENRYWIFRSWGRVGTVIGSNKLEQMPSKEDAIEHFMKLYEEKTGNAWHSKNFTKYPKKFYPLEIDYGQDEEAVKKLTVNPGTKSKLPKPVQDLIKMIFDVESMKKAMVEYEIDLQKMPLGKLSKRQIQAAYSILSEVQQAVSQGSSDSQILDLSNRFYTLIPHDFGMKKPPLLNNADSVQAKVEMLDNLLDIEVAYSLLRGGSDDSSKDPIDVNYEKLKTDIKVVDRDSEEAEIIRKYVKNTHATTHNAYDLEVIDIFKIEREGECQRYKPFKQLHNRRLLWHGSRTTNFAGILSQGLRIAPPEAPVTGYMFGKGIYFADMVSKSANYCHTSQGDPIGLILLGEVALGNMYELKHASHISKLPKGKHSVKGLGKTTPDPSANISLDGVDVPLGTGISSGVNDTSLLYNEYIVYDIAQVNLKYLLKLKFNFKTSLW

Consider `NC(=O)c1cccc2[nH]c(-c3ccc([C@@H]4CCCN4)cc3F)nc12` [A-966492], for which the t1/2est average on PARP1 [1] (PARP1, +HPF1, average) is 38.5 min; at PARP1 [1] (PARP1, without HPF1, average), 4.58 min. The slope is 149 s/nM and 124 s/nM and 110 s/nM at PARP1 [1] (setting [6]); 34.7 s/nM and 49.9 s/nM and 38.6 s/nM on PARP1 [1] (setting [7]). Moreover, the t1/2est at PARP1 [1] (setting [6]) was 39 min and 37.5 min; at PARP1 [1] (setting [7]), 4.75 min and 4.5 min.

Regarding `COC1CCN(C(=O)c2cc(Cc3n[nH]c(=O)c4ccccc34)ccc2F)CC1` [AZD-2461], the “Fold (t-test)” value on PARP1 [1] (PARP1, fold-difference in Ki caused by the addition of HPF1) is on record as 2.9 ** fold. The Ki at PARP1 [1] (PARP1 alone, p18mer DNA, 2 mM NAD+, read-out: Ki) came to 2200 ± 600 pM.

In the case of `COC1CCN(C(=O)c2cc(Cc3n[nH]c(=O)c4ccccc34)ccc2F)CC1` [AZD], the “koff (est) average” value at PARP1 [1] (PARP1, +HPF1, average) was at least 0.00058 s⁻¹; on PARP1 [1] (PARP1, without HPF1, average), at least 0.00295 s⁻¹. Besides, the t1/2est average is 20.75 min on PARP1 [1] (PARP1, +HPF1, average) and 4.72 min at PARP1 [1] (PARP1, without HPF1, average). In addition, the inhibition constant Ki on PARP1 [1] (PARP1, +HPF1, average, read-out: Ki average) is 780 pM; at PARP1 [1] (PARP1, +HPF1, single experiment, read-out: Ki) it was 820 pM and 780 pM and 600 pM and 930 pM; on PARP1 [1] (PARP1, without HPF1, average, read-out: Ki average) it was 2230 pM; on PARP1 [1] (PARP1, without HPF1, single experiment, read-out: Ki), 2960 pM and 1690 pM and 1760 pM and 1730 pM and 2720 pM and 2530 pM. The slope at PARP1 [1] (setting [6]) is 49 s/nM and 51 s/nM and 67.1 s/nM and 43 s/nM; at PARP1 [1] (setting [7]), 9.4 s/nM and 16.4 s/nM and 15.8 s/nM and 16.1 s/nM and 10.2 s/nM and 11.0 s/nM. Also, the t1/2est at PARP1 [1] (setting [6]) was 17 min and 20 min and 29 min. Also, the kon ratio on PARP1 [1] (PARP1, ratio of averages with and without HPF1) is on record as 1.75. The Ki ratio at PARP1 [1] (PARP1, ratio of averages without and with HPF1) turned out to be 2.85.

As for `NC(=O)c1cccc2cn(-c3ccc([C@@H]4CCCNC4)cc3)nc12` [Nira], the t1/2est average amounted to 28.33 min on PARP1 [1] (PARP1, +HPF1, average) and 8.7 min on PARP1 [1] (PARP1, without HPF1, average). Besides, the slope on PARP1 [1] (setting [6]) was 60.3 s/nM and 61 s/nM and 66.7 s/nM. In addition, the t1/2est at PARP1 [1] (setting [6]) is 29 min and 28 min; on PARP1 [1] (setting [7]) it was 5.5 min and 11 min and 9.5 min and 8 min.

Regarding `O=C(c1cc(Cc2n[nH]c(=O)c3ccccc23)ccc1F)N1CCN(C(=O)C2CC2)CC1` [Olaparib], at PARP2 [2], the t1/2est is 4.17 min and 4.5 min and 3 min and 5.5 min and 4 min and 2.83 min; the t1/2est average is 4.05 min and 4.08 min.

With `CNCc1ccc(-c2[nH]c3cc(F)cc4c3c2CCNC4=O)cc1` [Rucaparib], the t1/2est average turned out to be 250 min on PARP1 [1] (PARP1, +HPF1, average) and 57.5 min on PARP1 [1] (PARP1, without HPF1, average). This compound also had a t1/2est at PARP1 [1] (setting [6]) of 250 min. Moreover, the PARP-trapping result on PARP1 [3] is on record as “strong”.

For `Cn1ncnc1[C@H]1c2n[nH]c(=O)c3cc(F)cc(c23)N[C@@H]1c1ccc(F)cc1` [Tala], the t1/2est average on PARP2 [2] (PARP2, +HPF1, average) was 9.17 min; at PARP2 [2] (PARP2, without HPF1, average), 6.83 min; on PARP1 [1] (PARP1, +HPF1, average), above 333.33 min; at PARP1 [1] (PARP1, without HPF1, average), 121.7 min. In addition, the slope on PARP2 [2] (setting [8]) is 91 s/nM and 65 s/nM; on PARP2 [2] (setting [9]) it was 180 s/nM and 131 s/nM and 191 s/nM; at PARP1 [1] (setting [7]) it was 1743 s/nM and 2697 s/nM and 2953 s/nM and 2451 s/nM. Further, the t1/2est was 11 min and 10 min and 6.5 min on PARP2 [2] (setting [8]); 7.5 min and 6.5 min on PARP2 [2] (setting [9]); 333.33 min on PARP1 [1] (setting [6]); 138.5 min and 95.83 min and 118.5 min and 134 min at PARP1 [1] (setting [7]).

`C[C@]1(c2nc3c(C(N)=O)cccc3[nH]2)CCCN1` [Veliparib]: the PARP-trapping entry at PARP1 [3] is “weak”.

As to `CC1=CC(C)=[N+]2C1=Cc1ccc(CCC(=O)N3CCN(C(=O)c4cc(Cc5n[nH]c(=O)c6ccccc56)ccc4F)CC3)n1[B-]2(F)F` [fl-Ola], the “off rate (single run)” value at PARP1 [4] (PARP1, Nuc165) is 0.004215 per min and 0.004911 per min and 0.004071 per min and 0.00473 per min and 0.004639 per min; at PARP1 [4] (PARP1, Nuc165+HPF1), 0.001434 per min and 0.001853 per min and 0.001613 per min and 0.002575 per min and 0.002863 per min; at PARP1 [4] (PARP1, buffer), 0.001297 per min and 0.001272 per min and 0.001404 per min and 0.001129 per min; at PARP1 [4] (PARP1, p18mer), 0.005934 per min and 0.004771 per min and 0.005583 per min and 0.004919 per min and 0.005548 per min; at PARP1 [4] (PARP1, p18mer+HPF1) it was 0.002334 per min and 0.002172 per min and 0.002936 per min and 0.003134 per min and 0.003344 per min. In addition, the on rate average was found to be 2.17 per uM per sec on PARP1 [4] (PARP1, Nuc165); 4.35 per uM per sec on PARP1 [4] (PARP1, Nuc165+HPF1); 0.39 per uM per sec on PARP1 [4] (PARP1, buffer); 1.27 per uM per sec at PARP1 [4] (PARP1, p18mer); 1.95 per uM per sec on PARP1 [4] (PARP1, p18mer+HPF1). Also, the “on rate (observed, single run)” value at PARP1 [4] (PARP1, Nuc165+HPF1) is 0.03904 and 0.05638 and 0.0311 and 0.04561 and 0.04092 and 0.03175 and 0.05953; on PARP1 [4] (PARP1, buffer) it was 0.002763 and 0.003297 and 0.003517 and 0.004488 and 0.003954 and 0.005011 and 0.004368 and 0.00415; on PARP1 [4] (PARP1, p18mer+HPF1) it was 0.02205 and 0.01731 and 0.01849 and 0.01852 and 0.01515 and 0.01847 and 0.02629. The “Off (individual replicates)” value on PARP2 [5] (PARP2, Nuc147) was 0.000128 per sec and 0.000098 per sec and 0.000096 per sec and 0.000087 per sec; on PARP2 [5] (PARP2, Nuc147/HPF1), 0.000060 per sec and 0.000066 per sec and 0.000047 per sec; at PARP2 [5] (PARP2, p18mer), 0.000127 per sec and 0.000133 per sec and 0.000111 per sec and 0.000117 per sec; at PARP2 [5] (PARP2, p18mer/HPF1) it was 0.000135 per sec and 0.000112 per sec and 0.000093 per sec. Moreover, the “On (individual replicates)” value on PARP2 [5] (PARP2, Nuc147) was 0.06047 and 0.0458 and 0.0509 and 0.06962; at PARP2 [5] (PARP2, Nuc147/HPF1), 0.02342 and 0.02572 and 0.02231 and 0.02096; at PARP2 [5] (PARP2, p18mer) it was 0.06673 and 0.08057 and 0.1117; at PARP2 [5] (PARP2, p18mer/HPF1), 0.06627 and 0.04795 and 0.05623 and 0.05079. The On average was determined as 5.7 per uM per sec on PARP2 [5] (PARP2, Nuc147); 2.3 per uM per sec at PARP2 [5] (PARP2, Nuc147/HPF1); 8.6 per uM per sec on PARP2 [5] (PARP2, p18mer); 5.5 per uM per sec on PARP2 [5] (PARP2, p18mer/HPF1). For the same compound, the Kd on PARP2 [5] (PARP2, Nuc165) was 18 ± 4.6 pM; at PARP2 [5] (PARP2, Nuc165/HPF1), 24.9 ± 4.7 pM; on PARP2 [5] (PARP2, p18mer) it was 14.1 ± 3.9 pM; at PARP2 [5] (PARP2, p18mer/HPF1) it was 20.5 ± 4.8 pM. On PARP2 [5] (PARP2, p18mer), this compound came in with an Off average of 0.44 per hr.

Take `NC(=O)c1ccc(I)c([N+](=O)[O-])c1` [iniparib]: the “Inhibition of DNA release from PARP1” value on PARP1 [1] (PARP1, 20-2500 nM) was “not an inhibitor of PARP1; also recorded: does not have this effect”.

The values above are taken from publication PMC7854685, “Histone Parylation factor 1 contributes to the inhibition of PARP1 by cancer drugs” (Nature Communications, 2021).
